Key:
Hyperionvirus sp. APAH = test system: T1, Hyperionvirus sp. APAH; assay: colorimetric acetate release; assay type: biochemical; details: 26 °C
T1 construct: 351 aa; expressed in E. coli, purified
Excerpt: colorimetric acetate release on Hyperionvirus sp. APAH

Klosneuvirus KNV1 APAH = test system: T2, Klosneuvirus KNV1 APAH; assay: colorimetric acetate release; assay type: biochemical; details: 26 °C
T2 construct: 345 aa; expressed in E. coli, purified
Excerpt: colorimetric acetate release on Klosneuvirus KNV1 APAH

[1] = test system: T3, Pelagiphage HTVC201P "AdoMetDC" (pyruvoyl-dependent ADC); assay: decarboxylase activity assay; assay type: biochemical, Pelagibacter phage HTVC201P; details: 27 °C
T3 construct: gene speD; 122 aa; recombinant, purified; class 1b AdoMetDC homolog, pyruvoyl enzyme
Excerpt: decarboxylase activity assay on Pelagiphage HTVC201P "AdoMetDC" (pyruvoyl-dependent ADC)

KNV1 arginase homolog = test system: T4, KNV1 arginase homolog; assay: released urea detection; assay type: biochemical, Klosneuvirus KNV1
T4 construct: expressed in E. coli, purified

[2] = test system: T5, UCP01 AdoMetDC homolog (pyruvoyl-dependent ODC); assay: decarboxylase activity assay; assay type: biochemical, uncultured Myoviridae sp.; details: 26 °C
T5 construct: gene speD; 117 aa; recombinant, purified; pyruvoyl enzyme
Excerpt: decarboxylase activity assay on UCP01 AdoMetDC homolog (pyruvoyl-dependent ODC)

[3] = test system: T6, UCP04 AdoMetDC homolog (pyruvoyl-dependent ODC); details: 26 °C
T6 construct: gene speD
Excerpt: decarboxylase activity assay on UCP04 AdoMetDC homolog (pyruvoyl-dependent ODC)

[4] = test system: T7, UCP03 AdoMetDC homolog (pyruvoyl-dependent ODC); details: 26 °C
T7 construct: gene speD
Excerpt: decarboxylase activity assay on UCP03 AdoMetDC homolog (pyruvoyl-dependent ODC)

Klosneuvirus KNV1 ODC = details: 26 °C
[5] = test system: T8, UCP02 AdoMetDC homolog (pyruvoyl-dependent ODC); details: 26 °C
T8 construct: gene speD
Excerpt: decarboxylase activity assay on UCP02 AdoMetDC homolog (pyruvoyl-dependent ODC)

[6] = test system: Yellowstone Lake phycodnavirus 2 ODC; details: 26 °C
Excerpt: decarboxylase activity assay on Yellowstone Lake phycodnavirus 2 ODC

[7] = test system: T9, LBP AdoMetDC homolog (pyruvoyl-dependent ODC); details: 26 °C
T9 construct: gene speD
Excerpt: decarboxylase activity assay on LBP AdoMetDC homolog (pyruvoyl-dependent ODC)

CC(=O)NCCCNCCCCN [N^1-acetylspermidine]
Km (Hyperionvirus sp. APAH): 1600 ± 160 µM | Km (Klosneuvirus KNV1 APAH): 240 ± 20 µM

N=C(N)NCCC[C@H](N)C(=O)O [L-arginine]
Km [1]: 870 ± 110 µM | Km (KNV1 arginase homolog): 1300 ± 160 µM | Km [2]: 2200 ± 290 µM

NCCC[C@H](N)C(=O)O [L-ornithine]
Km [3]: 440 ± 40 µM | Km [4]: 620 ± 10 µM | Km (Klosneuvirus KNV1 ODC): 430 ± 20 µM | Km [5]: 2400 ± 190 µM | Km [2]: 5500 ± 290 µM | Km [6]: 540 ± 200 µM | Km [7]: 3800 ± 430 µM

CC(=O)NCCCCNCCCN [N^8-acetylspermidine]
Km (Hyperionvirus sp. APAH): 5000 ± 730 µM | Km (Klosneuvirus KNV1 APAH): 450 ± 10 µM
